US20040014066A1, “Screening system” (priority 2000, published 2004)
Entries after “also recorded” stand apart in the source; their conditions may differ. Positions of bridges follow the written chain, without caps; N, C: chain ends. Non-standard residues stand in square brackets, D forms with d. Residues, ends and D or L forms follow the SMILES beside them. *: point of attachment. Ileψ(thiazoline)Cys = CC[C@H](C)[C@H](N)C1=N[C@H](C(=O)*)CS1; dOrn = NCCC[C@@H](N)C(=O)O

System: sigE promoter
Test: sigE promoter bioassay: sigEp-neo fusion (pIJ6880) in M600, paper discs on MMT medium with lethal kanamycin, halo of kanamycin-resistant growth
Format: cell-based, Streptomyces coelicolor A3(2)
Details: for induction of the sigE promoter (halo of kanamycin-resistant growth), in words: M600 carrying pIJ6880, MMT medium, kanamycin 100 μg ml^−1, paper disc; for potency as inducer of the sigE promoter, in words: M600 carrying pIJ6880, kanamycin 100 μg ml^−1, paper disc
Description: To see if the sigE promoter could be induced by control-antibiotics known to target the cell envelope, spores of M600 carrying pIJ6880 were spread on MMT medium carrying a lethal concentration of kanamycin (100 μg ml^−1) and potential inducers were applied on paper discs to the freshly spread plates.
In order to perform the assay of the invention,spores of the host microorganism, for example, M600 carrying pIJ6880, are spread on MMT medium carrying a lethal concentration of kanamycin (100 μg ml^−1)at concentration of approximately 5×10^6/12 cm^2 plate. Test compound is applied on paper discs to a number of freshly spread plates in parallel using a different concentration of the test compound in each plate.

| Compound | induction of the sigE promoter (halo of kanamycin-resistant growth), in words | other results |
| --- | --- | --- |
| CN[C@H](CC(C)C)C(=O)N[C@H]1C(=O)N[C@@H](CC(N)=O)C(=O)N[C@H]2C(=O)N[C@H]3C(=O)N[C@H](C(=O)N[C@H](C(=O)O)c4cc(O)cc(O)c4-c4cc3ccc4O)[C@H](O)c3ccc(c(Cl)c3)Oc3cc2cc(c3O[C@@H]2O[C@H](CO)[C@@H](O)[C@H](O)[C@H]2O[C@H]2C[C@](C)(N)[C@H](O)[C@H](C)O2)Oc2ccc(cc2Cl)[C@H]1O [Vancomycin] | induced a halo of kanamycin-resistant growth; also recorded: found to induce the sigE promoter | potency as inducer of the sigE promoter, in words: particularly potent inducers; signs of toxicity to the reporter strain while acting as inducer (halo grows to the edge of the disc) (paper disc, FIG. 2): without showing any signs of toxicity |
| Teicoplanin | induced a halo of kanamycin-resistant growth; also recorded: found to induce the sigE promoter | potency as inducer of the sigE promoter, in words: particularly potent inducers |
| lysozyme | acted as an inducer | – |
| CC1=C(C(=O)O)N2C(=O)[C@@H](NC(=O)[C@H](N)c3ccccc3)[C@H]2SC1 [Cephalexin] | found to induce the sigE promoter | – |
| [H]/N=C(/N)N[C@H]1[C@H](O)[C@@H](O)[C@H](O[C@@H]2O[C@@H](C)[C@](O)(C=O)[C@H]2O[C@@H]2O[C@@H](CO)[C@H](O)[C@@H](O)[C@@H]2NC)[C@@H](N/C(N)=N\[H])[C@@H]1O [Streptomycin] | do not induce a halo | – |
| Ristocetin | induced a halo of kanamycin-resistant growth; also recorded: found to induce the sigE promoter | potency as inducer of the sigE promoter, in words: particularly potent inducers; amount giving a positive reaction in the bioassay (initial assessment of sensitivity) (sigE promoter bioassay): 75 ng |
| N[C@@H](C(=O)N[C@@H]1C(=O)N2C(C(=O)O)=C(Cl)CS[C@H]12)c1ccccc1 [Cefaclor] | found to induce the sigE promoter | – |
| CC1(C)S[C@@H]2[C@H](NC(=O)[C@H](N)c3ccc(O)cc3)C(=O)N2[C@H]1C(=O)O [Amoxycillin] | induced a halo of kanamycin-resistant growth | – |
| CC1=C(C(=O)O)N2C(=O)[C@@H](NC(=O)[C@H](N)C3=CCC=CC3)[C@H]2SC1 [Cepharadine] | found to induce the sigE promoter | – |
| Cc1onc(-c2ccccc2)c1C(=O)N[C@@H]1C(=O)N2[C@@H]1SC(C)(C)[C@@H]2C(=O)O [oxacillin] | found to induce the sigE promoter | – |
| CO[C@@H]1[C@@H](OC(N)=O)[C@@H](O)[C@H](Oc2ccc3c(O)c(NC(=O)c4ccc(O)c(CC=C(C)C)c4)c(=O)oc3c2C)OC1(C)C [Novobiocin] | do not induce a halo | – |
| CC[C@H](C)[C@H](N)C1=N[C@H](C(=O)N[C@@H](CC(C)C)C(=O)N[C@H](CCC(=O)O)C(=O)N[C@H](C(=O)N[C@H]2CCCCNC(=O)[C@H](CC(N)=O)NC(=O)[C@@H](CC(=O)O)NC(=O)[C@H](Cc3cnc[nH]3)NC(=O)[C@@H](Cc3ccccc3)NC(=O)[C@H]([C@@H](C)CC)NC(=O)[C@@H](CCCN)NC2=O)[C@@H](C)CC)CS1 [Bacitracin] ({Ileψ(thiazoline)Cys}-L[dE]IK[dOrn]I[dF]H[dD]N; lactam 4-C) | found to induce the sigE promoter | potency as inducer of the sigE promoter, in words: particularly potent inducers |
| C=C(NC(=O)C(=C)NC(=O)c1csc(C2=N[C@@H]3c4csc(n4)[C@H]4NC(=O)c5csc(n5)[C@H]([C@](C)(O)[C@@H](C)O)NC(=O)[C@H]5CSC(=N5)/C(=C/C)NC(=O)[C@H]([C@@H](C)O)NC(=O)c5csc(n5)[C@]3(CC2)NC(=O)[C@H](C)NC(=O)C(=C)NC(=O)[C@H](C)NC(=O)[C@H]([C@@H](C)CC)N[C@@H]2C=Cc3c([C@H](C)O)cc(nc3[C@H]2O)C(=O)O[C@@H]4C)n1)C(N)=O [Thiostrepton] | do not induce a halo | – |
| CC1(C)S[C@@H]2[C@H](NC(=O)Cc3ccccc3)C(=O)N2[C@H]1C(=O)O [Penicillin G] | induced a halo of kanamycin-resistant growth; also recorded: found to induce the sigE promoter | – |
| CC1(C)S[C@@H]2[C@H](NC(=O)[C@H](N)c3ccccc3)C(=O)N2[C@H]1C(=O)O [Ampicillin] | found to induce the sigE promoter | – |
| CC1(C)S[C@@H]2[C@H](NC(=O)[C@H](C(=O)O)c3ccsc3)C(=O)N2[C@H]1C(=O)O [Ticarcillin] | induced a halo of kanamycin-resistant growth; also recorded: found to induce the sigE promoter | – |
| CC1=C(C(=O)O)N2C(=O)[C@@H](NC(=O)[C@H](N)c3ccc(O)cc3)[C@H]2SC1 [Cefadroxil] | found to induce the sigE promoter | – |
